What is called IC50 is the concentration that inhibits the measured activity by half. Low readings indicate greater potency in that assay, high ones weaker potency in that assay.

The target of the assay is T1, FAK enzyme (6 His tagged kinase domain, GenBank NP—722560) (Homo sapiens, UniProt Q05397).
T1 construct: 6 His; made in house; host or cells: insect cell culture infected with baculovirus
T1 sequence (Q05397 422-680 limits assumed): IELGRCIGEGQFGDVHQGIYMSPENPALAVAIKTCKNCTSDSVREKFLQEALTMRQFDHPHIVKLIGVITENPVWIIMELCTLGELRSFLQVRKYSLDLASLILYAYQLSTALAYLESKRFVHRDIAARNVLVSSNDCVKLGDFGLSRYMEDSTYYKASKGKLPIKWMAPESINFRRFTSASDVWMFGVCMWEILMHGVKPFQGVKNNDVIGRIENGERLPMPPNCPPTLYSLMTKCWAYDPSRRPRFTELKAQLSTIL
The assay can be described thus: In vitro enzyme assay (a): sandwich ELISA of FAK tyrosine kinase activity on polyGAT peptide, TMB colorimetric endpoint. The note with it: in vitro Enzyme Assay test (a); ATP at Km; geometric mean of n > 1 measurements, values marked * tested once. Type of assay: biochemical. The gist of the method: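 Recombinant His-tagged FAK kinase domain (baculovirus/insect cells) phosphorylated plate-coated polyGAT with ATP at Km, MgCl2/MnCl2, HEPES pH 7.4, 25 min at room temperature before EDTA stop. Phosphotyrosine detected by HRP-4G10 antibody and TMB absorbance at 450 nm; IC50 from 12-point curve anchored to DMSO and staurosporine controls.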
`CN(C)CCNC(=O)Cn1cc(Nc2cc(Nc3cccc4c3C(=O)N(C)CC4)c(F)cn2)cn1` [Example 4.22, N-(2-dimethylaminoethyl)-2-[4-[[5-fluoro-4-[(2-methyl-1-oxo-3,4-dihydroisoquinolin-8-yl)amino]-2-pyridyl]amino]pyrazol-1-yl]acetamide] registered an IC50 of 364 nM.

`COCCNC(=O)Cn1cc(Nc2cc(Nc3cccc4c3C(=O)N(C)CC4)c(F)cn2)cn1` [Example 4.23, 2-[4-[[5-fluoro-4-[(2-methyl-1-oxo-3,4-dihydroisoquinolin-8-yl)amino]-2-pyridyl]amino]pyrazol-1-yl]-N-(2-methoxyethyl)acetamide] displayed an IC50 of 449 nM. As for `COCCN(C)C(=O)Cn1cc(Nc2cc(Nc3cccc4c3C(=O)N(C)CC4)c(F)cn2)cn1` [Example 4.24, 2-[4-[[5-fluoro-4-[(2-methyl-1-oxo-3,4-dihydroisoquinolin-8-yl)amino]-2-pyridyl]amino]pyrazol-1-yl]-N-(2-methoxyethyl)-N-methyl-acetamide], the IC50 was 294 nM. As to `CN1CCc2cccc(Nc3cc(Nc4cnn(CC(=O)N5CCOCC5)c4)ncc3F)c2C1=O` [Example 4.25, 8-[[5-fluoro-2-[[1-(2-morpholino-2-oxo-ethyl)pyrazol-4-yl]amino]-4-pyridyl]amino]-2-methyl-3,4-dihydroisoquinolin-1-one], half-maximal inhibition (IC50) was put at 204 nM. As to `CN1CCN(C(=O)Cn2cc(Nc3cc(Nc4cccc5c4C(=O)N(C)CC5)c(F)cn3)cn2)CC1` [Example 4.26, 8-[[5-fluoro-2-[[1-[2-(4-methylpiperazin-1-yl)-2-oxo-ethyl]pyrazol-4-yl]amino]-4-pyridyl]amino]-2-methyl-3,4-dihydroisoquinolin-1-one], the midpoint of inhibition, the IC50, lay at 199 nM. `CNC1CCN(C(=O)Cn2cc(Nc3cc(Nc4cccc5c4C(=O)N(C)CC5)c(F)cn3)cn2)C1` (centres unmarked) [Example 4.27, 8-[[5-Fluoro-2-[[1-[2-(3-methylaminopyrrolidin-1-yl)-2-oxo-ethyl]pyrazol-4-yl]amino]-4-pyridyl]amino]-2-methyl-3,4-dihydroisoquinolin-1-one] registered a concentration for half-maximal inhibition (IC50) of 72 nM. `Cc1nn(C)cc1Nc1cc(Nc2ccc(N3CCN(C(C)C)CC3)c3c2C(=O)N(C)C3)c(F)cn1` [Example 4.28, 7-[[2-[(1,3-Dimethylpyrazol-4-yl)amino]-5-fluoro-4-pyridyl]amino]-4-(4-isopropylpiperazin-1-yl)-2-methyl-isoindolin-1-one] gave an IC50 of 1120 nM. Regarding `CN1CCN(c2[nH]nc(Nc3cc(Nc4cccc5c4C(=O)N(C)CC5)c(F)cn3)c2C#N)CC1` [Example 4.29, 3-[[5-Fluoro-4-[(2-methyl-1-oxo-3,4-dihydroisoquinolin-8-yl)amino]-2-pyridyl]amino]-5-(4-methylpiperazin-1-yl)-1H-pyrazole-4-carbonitrile], half-maximal inhibition (IC50) was put at 22700 nM. Next, `Cc1nn(C)cc1Nc1cc(Nc2cccc3c2C(=O)N(C)CC3)c(C(F)(F)F)cn1` [Example 5.01, 8-[[2-[(1,3-dimethylpyrazol-4-yl)amino]-5-(trifluoromethyl)-4-pyridyl]amino]-2-methyl-3,4-dihydroisoquinolin-1-one]: 6 nM. The molecule `CNC(=O)c1c(Nc2cc(Nc3cn(C)nc3C)ncc2C(F)(F)F)cccc1OC` [Example 5.02, 2-[[2-[(1,3-dimethylpyrazol-4-yl)amino]-5-(trifluoromethyl)-4-pyridyl]amino]-6-methoxy-N-methyl-benzamide] came in with a 50% inhibitory concentration (IC50) of 9 nM. For `Cc1nn(C)cc1Nc1cc(Nc2cccc3c2C(=O)N(C)CCO3)c(C(F)(F)F)cn1` [Example 5.03, 6-[[2-[(1,3-dimethylpyrazol-4-yl)amino]-5-(trifluoromethyl)-4-pyridyl]amino]-4-methyl-2,3-dihydro-1,4-benzoxazepin-5-one], the half-inhibitory concentration (IC50) came to 6 nM. On to `CN1CCc2cccc(Nc3cc(Nc4ccnn4C)ncc3Cl)c2C1=O` [Example 6.01, 8-[[5-chloro-2-[(2-methylpyrazol-3-yl)amino]-4-pyridyl]amino]-2-methyl-3,4-dihydroisoquinolin-1-one], for which the IC50 was found to be 6 nM. The result for `Cc1cc(Nc2cc(Nc3cccc4c3C(=O)N(C)CC4)c(Cl)cn2)n(C)n1` [Example 6.02, 8-[[5-chloro-2-[(2,5-dimethylpyrazol-3-yl)amino]-4-pyridyl]amino]-2-methyl-3,4-dihydroisoquinolin-1-one] reads 7 nM. Next, `Cc1c(Nc2cc(Nc3cccc4c3C(=O)N(C)CC4)c(Cl)cn2)cnn1C` [Example 6.03, 8-[[5-chloro-2-[(1,5-dimethylpyrazol-4-yl)amino]-4-pyridyl]amino]-2-methyl-3,4-dihydroisoquinolin-1-one]: 5 nM; `CCn1cc(Nc2cc(Nc3cccc4c3C(=O)N(C)CC4)c(Cl)cn2)c(C)n1` [Example 6.04, 8-[[5-chloro-2-[(1-ethyl-3-methyl-pyrazol-4-yl)amino]-4-pyridyl]amino]-2-methyl-3,4-dihydroisoquinolin-1-one]: 6 nM. On to `CN1CCc2cccc(Nc3cc(Nc4cc(C5CC5)nn4C)ncc3Cl)c2C1=O` [Example 6.05, 8-[[5-chloro-2-[(5-cyclopropyl-2-methyl-pyrazol-3-yl)amino]-4-pyridyl]amino]-2-methyl-3,4-dihydroisoquinolin-1-one], for which 10 nM corresponded to half-maximal inhibition (IC50).

For the molecule `CCn1nccc1Nc1cc(Nc2cccc3c2C(=O)N(C)CC3)c(Cl)cn1` [Example 6.06, 8-[[5-chloro-2-[(2-ethylpyrazol-3-yl)amino]-4-pyridyl]amino]-2-methyl-3,4-dihydroisoquinolin-1-one], the IC50 came out at 4 nM. `CN1CCc2cccc(Nc3cc(Nc4ccn(C)n4)ncc3Cl)c2C1=O` [Example 6.07, 8-[[5-chloro-2-[(1-methylpyrazol-3-yl)amino]-4-pyridyl]amino]-2-methyl-3,4-dihydroisoquinolin-1-one] registered an IC50 of 9 nM.

`CCc1nn(C(C)(C)C)c(Nc2cc(Nc3cccc4c3C(=O)N(C)CC4)c(Cl)cn2)c1C` [Example 6.08, 8-[[2-[(2-tert-butyl-5-ethyl-4-methyl-pyrazol-3-yl)amino]-5-chloro-4-pyridyl]amino]-2-methyl-3,4-dihydroisoquinolin-1-one] had a half-inhibitory concentration (IC50) of 5620 nM. Take `CC(C)Cn1cc(Nc2cc(Nc3cccc4c3C(=O)N(C)CC4)c(Cl)cn2)cn1` [Example 6.09, 8-[[5-chloro-2-[(1-isobutylpyrazol-4-yl)amino]-4-pyridyl]amino]-2-methyl-3,4-dihydroisoquinolin-1-one]: inhibition was half-maximal at 71 nM (IC50). `CNC(=O)c1ccccc1Nc1cc(Nc2ccnn2C)ncc1C(F)(F)F` [Example 8.01, N-methyl-2-[[2-[(2-methylpyrazol-3-yl)amino]-5-(trifluoromethyl)-4-pyridyl]amino]benzamide]: the midpoint of inhibition, the IC50, lay at 6 nM. Regarding `CNC(=O)c1ccccc1Nc1cc(Nc2cc(C)nn2C)ncc1C(F)(F)F` [Example 8.02, 2-[[2-[(2,5-dimethylpyrazol-3-yl)amino]-5-(trifluoromethyl)-4-pyridyl]amino]-N-methyl-benzamide], it took 8 nM to reach half-maximal inhibition (IC50).

The molecule `CNC(=O)c1ccccc1Nc1cc(Nc2cnn(C)c2C)ncc1C(F)(F)F` [Example 8.03, 2-[[2-[(1,5-dimethylpyrazol-4-yl)amino]-5-(trifluoromethyl)-4-pyridyl]amino]-N-methyl-benzamide] displayed a half-maximal inhibitory concentration (IC50) of 6 nM. Regarding `CCn1cc(Nc2cc(Nc3ccccc3C(=O)NC)c(C(F)(F)F)cn2)c(C)n1` [Example 8.04, 2-[[2-[(1-ethyl-3-methyl-pyrazol-4-yl)amino]-5-(trifluoromethyl)-4-pyridyl]amino]-N-methyl-benzamide], the concentration for half-maximal inhibition (IC50) was determined as 6 nM.

Consider `CCn1cc(Nc2cc(Nc3ccccc3C(=O)NC)c(C(F)(F)F)cn2)cn1` [Example 8.05, 2-[[2-[(1-ethylpyrazol-4-yl)amino]-5-(trifluoromethyl)-4-pyridyl]amino]-N-methyl-benzamide], for which 14 nM corresponded to half-maximal inhibition (IC50).

Consider `CCn1ccc(Nc2cc(Nc3ccccc3C(=O)NC)c(C(F)(F)F)cn2)n1` [Example 8.06, 2-[[2-[(1-ethylpyrazol-3-yl)amino]-5-(trifluoromethyl)-4-pyridyl]amino]-N-methyl-benzamide], for which the IC50 is 11 nM. `CNC(=O)c1ccccc1Nc1cc(Nc2cc(C3CC3)nn2C)ncc1C(F)(F)F` [Example 8.07, 2-[[2-[(5-cyclopropyl-2-methyl-pyrazol-3-yl)amino]-5-(trifluoromethyl)-4-pyridyl]amino]-N-methyl-benzamide] displayed an IC50 of 26 nM. Regarding `CCn1nccc1Nc1cc(Nc2ccccc2C(=O)NC)c(C(F)(F)F)cn1` [Example 8.08, 2-[[2-[(2-ethylpyrazol-3-yl)amino]-5-(trifluoromethyl)-4-pyridyl]amino]-N-methyl-benzamide], the IC50 worked out at 10 nM. The molecule `CNC(=O)c1ccccc1Nc1cc(Nc2cnn(CC(C)C)c2)ncc1C(F)(F)F` [Example 8.09, 2-[[2-[(1-isobutylpyrazol-4-yl)amino]-5-(trifluoromethyl)-4-pyridyl]amino]-N-methyl-benzamide] returned an IC50 of 69 nM. Molecule `CNC(=O)c1ccccc1Nc1cc(Nc2c(C)nn(C)c2C)ncc1C(F)(F)F` [Example 8.10, N-methyl-2-[[5-(trifluoromethyl)-2-[(1,3,5-trimethylpyrazol-4-yl)amino]-4-pyridyl]amino]benzamide] displayed an IC50 of 13 nM.

With `CNC(=O)c1ccccc1Nc1cc(Nc2cnn(C(C)C)c2)ncc1C(F)(F)F` [Example 8.11, 2-[[2-[(1-isopropylpyrazol-4-yl)amino]-5-(trifluoromethyl)-4-pyridyl]amino]-N-methyl-benzamide], the IC50 came to 34 nM. In the case of `CNC(=O)c1ccccc1Nc1cc(Nc2cn(C)nc2C(F)(F)F)ncc1C(F)(F)F` [Example 8.12, N-methyl-2-[[2-[[1-methyl-3-(trifluoromethyl)pyrazol-4-yl]amino]-5-(trifluoromethyl)-4-pyridyl]amino]benzamide], the IC50 came to 18 nM.

For the origin of these results see patent publication US8569298B2, “Pyridine compounds” (Astrazeneca AB, priority 2008, dated 2013).
